Results published in ChEMBL document CHEMBL1201862, “PubChem BioAssay data set” (2004).
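These data come from cells grown in 96-well plates and exposed to compound for 48 hours at five concentrations. Here, GI50 denotes the concentration required for 50% inhibition of growth.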 Calls of active or inactive are those of the source. No stated cut-off is given here; in the data, active = GI50 up to about 1.1 µM and inactive = higher.

How the values were obtained:
Assay in all cases: NCI anticancer screen, dose series, 48 h
[1] = system: HCT-15
[2] = system: NCI-H522
[3] = system: A549
[4] = system: SK-MEL-28
[5] = system: MCF7
[6] = system: EKVX
[7] = system: NCI-H460
[8] = system: SF-295
[9] = system: BT-549
[10] = system: OVCAR-8
[11] = system: NCI-H23
[12] = system: K562
[13] = system: NCI-H226
[14] = system: HT-29
[15] = system: SN12C
[16] = system: HCT-116
[17] = system: OVCAR-4
[18] = system: T47D
[19] = system: HL-60
[20] = system: CAKI-1

SMILES | GI50 [1] | GI50 [2] | GI50 [3] | GI50 [4] | GI50 [5] | GI50 [6] | GI50 [7] | GI50 [8] | GI50 [9] | GI50 [10] | GI50 [11] | GI50 [12] | GI50 [13] | GI50 [14] | GI50 [15] | GI50 [16] | GI50 [17] | GI50 [18] | GI50 [19] | GI50 [20]
Cc1cnc(/N=c2\sc(C)cn2-c2ncc(C)s2)s1 | > 100 µM | > 100 µM (inactive) | > 100 µM (inactive) | > 100 µM (inactive) | > 100 µM (inactive) | > 100 µM (inactive) | > 100 µM (inactive) | > 100 µM (inactive) | > 100 µM (inactive) | > 100 µM (inactive) | > 100 µM (inactive) | > 100 µM (inactive) | > 100 µM (inactive) | > 100 µM (inactive) | > 100 µM (inactive) | > 100 µM (inactive) | > 100 µM (inactive) | > 100 µM (inactive) | > 100 µM (inactive) | –
Cc1nn(C(=O)c2ccncc2)c2c1C(c1ccccc1[N+](=O)[O-])SC(=N)N2 (configuration not stated) | > 10 µM | – | > 10 µM (inactive) | > 10 µM (inactive) | > 10 µM (inactive) | > 10 µM (inactive) | > 10 µM (inactive) | > 10 µM (inactive) | > 10 µM (inactive) | > 10 µM (inactive) | > 10 µM (inactive) | > 10 µM (inactive) | > 10 µM (inactive) | > 10 µM (inactive) | > 10 µM (inactive) | > 10 µM (inactive) | > 10 µM (inactive) | > 10 µM (inactive) | > 10 µM (inactive) | > 10 µM (inactive)
O=C1c2cc(Cl)ccc2-n2cnnc2C2CSCN12 (configuration not stated) | > 100 µM | > 100 µM (inactive) | > 100 µM (inactive) | > 100 µM (inactive) | > 100 µM (inactive) | > 100 µM (inactive) | > 100 µM (inactive) | > 100 µM (inactive) | > 100 µM (inactive) | > 100 µM (inactive) | – | > 100 µM (inactive) | > 100 µM (inactive) | > 100 µM (inactive) | > 100 µM (inactive) | > 100 µM (inactive) | > 100 µM (inactive) | > 100 µM (inactive) | – | 4.54 µM (inactive)
COC(=O)c1cc2c(cc1C(=O)OC)[C@@]1(C)CCCC(C)(C)C1CC2 (some centres not stated) | 17.1 µM | 16.9 µM (inactive) | 19.4 µM (inactive) | 26.3 µM (inactive) | 15 µM (inactive) | 13.3 µM (inactive) | 20.3 µM (inactive) | 16.3 µM (inactive) | 28.6 µM (inactive) | 30.9 µM (inactive) | 30.5 µM (inactive) | 13.8 µM (inactive) | 17.4 µM (inactive) | 15.6 µM (inactive) | 19.3 µM (inactive) | 17.9 µM (inactive) | 22.4 µM (inactive) | 0.508 µM (active) | 8.77 µM (inactive) | –
Cc1ccc(C)c(NC(=O)C(=O)C(c2cnc3ccc([N+](=O)[O-])cc3n2)[N+](=O)[O-])c1 (configuration not stated) | 76.6 µM | 21.1 µM (inactive) | 58.3 µM (inactive) | > 100 µM (inactive) | > 100 µM (inactive) | 30.8 µM (inactive) | 42.7 µM (inactive) | > 100 µM (inactive) | 53.5 µM (inactive) | 27 µM (inactive) | > 100 µM (inactive) | 41.4 µM (inactive) | 34.1 µM (inactive) | 61.2 µM (inactive) | 59.7 µM (inactive) | 58.6 µM (inactive) | 17.3 µM (inactive) | 38.5 µM (inactive) | 14.9 µM (inactive) | –
CCOC(=O)Cc1nc2c(N)ncnc2n1C1OC(COC(C)=O)C(OC(C)=O)C1OC(C)=O (configuration not stated) | > 100 µM | > 100 µM (inactive) | > 100 µM (inactive) | > 100 µM (inactive) | > 100 µM (inactive) | > 100 µM (inactive) | > 100 µM (inactive) | > 100 µM (inactive) | > 100 µM (inactive) | > 100 µM (inactive) | > 100 µM (inactive) | > 100 µM (inactive) | > 100 µM (inactive) | > 100 µM (inactive) | > 100 µM (inactive) | > 100 µM (inactive) | – | > 100 µM (inactive) | > 100 µM (inactive) | > 100 µM (inactive)
CC1=C2C3=C(C)C(=O)C(C)(C)CC[C@@]3(C)[C@]2(C)CCC(C)(C)C1=O | > 100 µM | > 100 µM (inactive) | > 100 µM (inactive) | – | > 100 µM (inactive) | > 100 µM (inactive) | – | > 100 µM (inactive) | > 100 µM (inactive) | > 100 µM (inactive) | > 100 µM (inactive) | > 100 µM (inactive) | > 100 µM (inactive) | > 100 µM (inactive) | > 100 µM (inactive) | > 100 µM (inactive) | > 100 µM (inactive) | > 100 µM (inactive) | > 100 µM (inactive) | > 100 µM (inactive)
CC(=O)Oc1ccccc1C(=O)Nc1ncc([N+](=O)[O-])s1 [NITAZOXANIDE] | 19.9 µM | 2.86 µM (inactive) | 22 µM (inactive) | 11.6 µM (inactive) | 10.2 µM (inactive) | 21 µM (inactive) | 17.1 µM (inactive) | 9.91 µM (inactive) | 14.4 µM (inactive) | 15.7 µM (inactive) | 9.73 µM (inactive) | 55.7 µM (inactive) | 8.83 µM (inactive) | 15.5 µM (inactive) | 19.8 µM (inactive) | 11.2 µM (inactive) | 28.7 µM (inactive) | 13.7 µM (inactive) | – | 26.5 µM (inactive)
Cc1ncc([N+](=O)[O-])n1CCNC(=O)CCCn1ccnc1[N+](=O)[O-] | > 100 µM | – | > 100 µM (inactive) | > 100 µM (inactive) | > 100 µM (inactive) | > 100 µM (inactive) | > 100 µM (inactive) | > 100 µM (inactive) | > 100 µM (inactive) | > 100 µM (inactive) | > 100 µM (inactive) | > 100 µM (inactive) | > 100 µM (inactive) | > 100 µM (inactive) | > 100 µM (inactive) | > 100 µM (inactive) | > 100 µM (inactive) | > 100 µM (inactive) | > 100 µM (inactive) | > 100 µM (inactive)
COc1cc(O)cc2oc(-c3ccc(O)cc3)cc(=O)c12 | > 100 µM | 22.2 µM (inactive) | > 100 µM (inactive) | > 100 µM (inactive) | > 100 µM (inactive) | > 100 µM (inactive) | 67.5 µM (inactive) | 36.2 µM (inactive) | 47.1 µM (inactive) | 34.4 µM (inactive) | > 100 µM (inactive) | > 100 µM (inactive) | – | > 100 µM (inactive) | > 100 µM (inactive) | 44.4 µM (inactive) | – | 50.4 µM (inactive) | > 100 µM (inactive) | 64.3 µM (inactive)
N#CCc1n[nH]c2nc(SCc3ccccc3)nc(N3CCCCC3)c12 | 32.7 µM | 19.3 µM (inactive) | 19.3 µM (inactive) | 20.5 µM (inactive) | 21.9 µM (inactive) | 20.5 µM (inactive) | 19.6 µM (inactive) | 19.6 µM (inactive) | 18.6 µM (inactive) | 38.9 µM (inactive) | 18.5 µM (inactive) | 18.6 µM (inactive) | – | 20.3 µM (inactive) | 13 µM (inactive) | 17.7 µM (inactive) | 19.5 µM (inactive) | 19.5 µM (inactive) | 25.8 µM (inactive) | 19.9 µM (inactive)
COc1cc(/C=C/C(=O)OC[C@]23O[C@H]2[C@@H](OC2OC(C)C(O)C(O)C2O)C2C=CO[C@@H](OC4OC(CO)C(O)C(O)C4O)C23)ccc1O (some centres not stated) | > 100 µM | > 100 µM (inactive) | > 100 µM (inactive) | > 100 µM (inactive) | > 100 µM (inactive) | > 100 µM (inactive) | > 100 µM (inactive) | > 100 µM (inactive) | > 100 µM (inactive) | > 100 µM (inactive) | > 100 µM (inactive) | > 100 µM (inactive) | > 100 µM (inactive) | > 100 µM (inactive) | > 100 µM (inactive) | > 100 µM (inactive) | > 100 µM (inactive) | > 100 µM (inactive) | > 100 µM (inactive) | –
N#Cc1c(=O)c2cccnc2n2c1[nH]c1ccccc12 | 98.2 µM | – | > 100 µM (inactive) | > 100 µM (inactive) | > 100 µM (inactive) | 85.9 µM (inactive) | 69.2 µM (inactive) | 49.3 µM (inactive) | 57.3 µM (inactive) | 66.7 µM (inactive) | 38.7 µM (inactive) | > 100 µM (inactive) | 66.5 µM (inactive) | > 100 µM (inactive) | > 100 µM (inactive) | 91.4 µM (inactive) | > 100 µM (inactive) | > 100 µM (inactive) | > 100 µM (inactive) | > 100 µM (inactive)
CCOC(=O)C1CCCN1C(=O)c1ccccc1Cl (configuration not stated) | > 100 µM | > 100 µM (inactive) | > 100 µM (inactive) | > 100 µM (inactive) | > 100 µM (inactive) | > 100 µM (inactive) | > 100 µM (inactive) | > 100 µM (inactive) | > 100 µM (inactive) | > 100 µM (inactive) | > 100 µM (inactive) | > 100 µM (inactive) | > 100 µM (inactive) | > 100 µM (inactive) | > 100 µM (inactive) | > 100 µM (inactive) | – | > 100 µM (inactive) | > 100 µM (inactive) | > 100 µM (inactive)
CCOC(=O)NC(NNc1ccc([N+](=O)[O-])cc1[N+](=O)[O-])(C(F)(F)F)C(F)(F)F | 27.9 µM | 30.5 µM (inactive) | 47 µM (inactive) | 52.4 µM (inactive) | 62.5 µM (inactive) | 41.8 µM (inactive) | 27.5 µM (inactive) | 59.7 µM (inactive) | 25.5 µM (inactive) | 30.8 µM (inactive) | 31.7 µM (inactive) | 25.1 µM (inactive) | 36 µM (inactive) | 32.3 µM (inactive) | 27.7 µM (inactive) | 32.1 µM (inactive) | – | 35.1 µM (inactive) | 14.4 µM (inactive) | 33 µM (inactive)
